Consider 91 molecules from PubChem BioAssay AID624404 (Broad Institute, 2012).

Results filed as inconclusive are left out.

For the test, the system named is D54 LucT luciferase reporter counterscreen, luminescence, 24 h. In words: luciferase activators in glycosylation-insensitive reporter cells, dose response, counter-screen for N-linked glycosylation inhibitor project, D54 LucT cells, luminescence, cherry pick (AID 624404). For orientation: A counterscreen serves to expose hits that act by an unwanted route or on another target.
For the molecule `CN1/C(=C/C=C(/C#N)C(N)=O)C(C)(C)c2ccccc21`, the AC35 is 0.00724 µM. Under `CCOC(=O)c1[nH]c(C)c(C(=O)c2ccc(C)cc2)c1C` stands 1.1 µM. The result for `COc1cc2[nH]c(C(=O)Nc3ccc(F)cc3)cc2c(OC)c1OC` reads 0.0982 µM; that for `O=S(=O)(Cc1ccc(Cl)cc1Cl)c1ccc(Cl)cc1`, 1.49 µM; that for `Cc1cccc(CCNC(=O)CCCOc2cc(=O)n(C)c3ccccc23)c1`, 0.321 µM. Regarding `CCOC(=O)c1[nH]c(C)c(C(=O)Nc2cc(OC)ccc2OC)c1C`, the AC35 is 0.345 µM. Under `CCCCn1c(SCc2c(C)noc2C)nc2cc(S(N)(=O)=O)ccc21` stands 0.68 µM. The result for `Cc1ccc2c(c1)C(=O)N1[C@H]3c4cc(Br)ccc4OC[C@@H]3[C@H](c3ccccc3)[C@]1(C)C(=O)N2` reads 0.241 µM; that for `CC(C)(C)OC(=O)[C@H](Cc1ccccc1)NC(=O)c1nc[nH]c1C(=O)N1CCc2ccccc2C1`, 2.55 µM. The result for `O=C(c1ccc(CS(=O)c2ccccc2Cl)o1)N1CCN(c2ccccn2)CC1` (stereo unspecified) reads 5.64 µM. With `COc1ccccc1NC(=O)c1cnc(SCC(=O)NCC2CCCO2)n(C)c1=O` (stereo unspecified), the AC35 was 4.93 µM. Take `Cc1cc(NS(=O)(=O)c2ccc(NC(=O)COc3c(C)cc(Br)cc3C)cc2)no1`: the AC35 was 1.66 µM. Under `Cc1cccc2c(C(=O)N3CCN(c4ccccc4)CC3)cc(-c3ccncc3)nc12` stands 0.126 µM.

Take `COc1ccc(C2(CNC(=O)c3cc(OC)c(OC)c(OC)c3)CCCC2)cc1OC`: the AC35 was 3.41 µM. The result for `C[C@H](CO)N1C[C@H](C)[C@@H](CN(C)S(=O)(=O)c2ccccc2)Oc2c(NC(=O)Cc3ccccc3)cccc2C1=O` reads 2.24 µM; that for `CSc1ncnc2c1ncn2CCCN[C@H](C)c1cccc2ccccc12`, 0.527 µM. Under `O=C(NC(=C(Cl)Cl)S(=O)(=O)c1ccc(Cl)cc1)c1ccccc1` stands 2.16 µM; under `CN(C)C(CNC(=O)CSc1nc2sc3c(c2c(=O)n1C)CCCC3)c1ccccc1` (stereo unspecified), 0.682 µM. `COCCCNC(=O)c1ccc(-c2c(C)noc2C)c2ccoc12`: the AC35 is 2.33 µM. The result for `O=C(c1cn(Cc2ccccc2)nc1-c1ccccc1)N1CCN(c2ccccn2)CC1` reads 0.984 µM; that for `COc1ccccc1N=CC1=C(O)CC(c2ccccc2)CC1=O` (stereo unspecified), 0.173 µM; that for `COc1ccc(C(=O)CSc2nnc(-c3cc4ccccc4cc3O)n2Cc2ccco2)cc1`, 1.8 µM. The result for `O=C(N/N=C/c1ccco1)c1cc(-c2ccncc2)nc2ccccc12` reads 7.16 µM; that for `Cc1ccc(-c2cc(C(=O)N/N=C/c3c[nH]c4ccccc34)[nH]n2)cc1`, 0.101 µM. Under `COc1ccc2[nH]c(C(=O)N/N=C/c3ccccc3OC)cc2c1` stands 1.17 µM. As to `Cn1c(=O)n(C)c2cc(NC(=O)CCl)ccc21`, the AC35 is 0.707 µM. Under `CCOC(=O)Nc1nc2ccc(Cn3cccc3)cc2[nH]1` stands 0.115 µM.

As to `O=c1[nH]c(-c2ccccc2)nc2sc(-c3ccccc3)cc12`, the AC35 is 0.188 µM. The result for `COc1ccc(Nc2nc3cc(-c4sccc4C)sc3c(=O)n2C)cc1OC` reads 0.104 µM; that for `COc1ccc2c(c1)[C@H]1[C@H](CO2)[C@H](c2ccccc2)[C@]2(C)C(=O)Nc3cc(F)ccc3C(=O)N12`, 0.326 µM; that for `O=C(Nc1ccccc1)N(CCN1CCOCC1)Cc1ccccc1F`, 2.37 µM. The result for `Nc1ccc(C(=O)Nc2ccccc2N)cc1` reads 0.744 µM; that for `COc1ccc(C(=O)Nc2sc(C)c(C)c2CN2CC(C)OC(C)C2)cc1` (stereo unspecified), 0.352 µM.

Take `C=CCn1c(SCc2c(C)noc2C)nc2sc(C)c(C)c2c1=O`: the AC35 is 2.02 µM. Consider `Cc1cccc(N2C(=O)N3[C@H](c4ccc(F)cc4)[C@@H]4C(=O)N(C5CCCCC5)C(=O)[C@@H]4[C@]3(Cc3ccccc3)C2=O)c1`, for which the AC35 is 0.541 µM.

In the case of `NC(=O)CC(NC(=O)Cc1ccc(Br)cc1)c1ccc(NC2CC3CCC2C3)c([N+](=O)[O-])c1` (stereo unspecified), the AC35 was 0.21 µM. Under `Cc1nc(-c2ccccc2)sc1-c1nc(-c2ccncc2)ncc1S(=O)(=O)c1ccccc1` stands 0.411 µM; under `Cc1ccc(C(=O)c2coc3c2C(=O)C(=O)c2ccccc2-3)cc1`, 4.05 µM.

Consider `COc1ccc(NC(=O)C2(C)Cc3c(-c4cccc(C(N)=O)c4)ccnc3O2)cc1` (stereo unspecified), for which the AC35 was 3.62 µM. Under `CCc1ccc(/C=N/NC(=O)c2nnn(-c3nonc3N)c2C(C)C)cc1` stands 2.63 µM; under `CC1(C(=O)NCC2CCOCC2)Cc2c(-c3cccc(C(F)(F)F)c3)ccnc2O1` (stereo unspecified), 0.0325 µM. For `O=C(NCCCN1CCOCC1)c1cc(-c2ccccc2)on1`, the AC35 was 3.04 µM. The result for `Cc1ccc(C2=NN(C(=O)CSc3nccn3C)C(c3ccco3)C2)cc1` (stereo unspecified) reads 0.323 µM; that for `COc1ccc(C2NC(=S)NC3=C2CCCC3=C2SCCS2)cc1` (stereo unspecified), 0.186 µM. The result for `CCN(CC)c1ccc(/C=N\NC(=O)c2cccc3cc[nH]c23)cc1` reads 1.94 µM. `Cc1ccc(NC(=O)c2ncn(CCCNCc3ccccc3)n2)cc1C`: the AC35 was 0.994 µM. The result for `COc1ccccc1N1CCN(c2ccc3c(c2)S(=O)(=O)c2cccc(C(=O)NCC4CC4)c2C3=O)CC1` reads 1.19 µM; that for `CN(C)c1ccc(/C=N/NC(=O)c2ccccc2Cl)cc1`, 0.119 µM. `COc1ccc2c(c1)[C@H]1[C@H](CO2)[C@H](c2ccccc2)[C@]2(C)C(=O)Nc3ccc(Cl)cc3C(=O)N12`: the AC35 is 0.148 µM. In the case of `COc1ccc2c(c1)C(=O)N1[C@H]3c4cc(Cl)ccc4OC[C@@H]3[C@H](c3ccccc3)[C@]1(C)C(=O)N2`, the AC35 was 0.981 µM. Under `C(=C\c1nccc2c1[nH]c1ccccc12)/c1ccccc1` stands 0.00701 µM; under `COc1ccccc1-c1c(C#N)c(N)nc2c1CCc1ccccc1-2`, 1.11 µM. Consider `COc1ccc(C(=O)/C=C/c2ccc(-c3ccccc3)cc2)cc1CSCC(=O)O`, for which the AC35 is 0.875 µM. Regarding `Cc1ccc(C(=O)NC(=C(Cl)Cl)S(=O)(=O)c2ccc(Cl)cc2)cc1`, the AC35 was 12.7 µM. Under `Cc1ccc(NC2=NC3(CCCC3)N=C(N)N2)c(C)c1` stands 7.54 µM; under `CC(C)c1ccc(/C=N/NC(=O)c2ccccc2Cl)cc1`, 0.247 µM. Under `Cn1c(=O)cc2c3c(c(N4CCCCC4)ccc31)C(=O)c1ccccc1-2` stands 1.35 µM. The result for `CC(C)(C)S(=O)N1Cc2cc(C(=O)NCC(F)(F)F)nc(-c3cccc(-c4cccc(F)c4)c3)c2[C@@H]1CCO` (stereo partly specified) reads 1.78 µM. Consider `COc1cccc(NC(=O)CCCOc2cc(=O)n(C)c3ccccc23)c1`, for which the AC35 was 4.63 µM.

With `NC(=O)c1cccc(-c2coc3c(C(=O)NCc4ccccc4)cccc23)c1`, the AC35 is 3.07 µM. For `CCOC(=O)c1c(C)c(C(=O)Nc2ccc(N(C)C)cc2)c(C)n1CC`, the AC35 is 3.56 µM. Under `Cc1ccc(N2CCN(C3=NC(=O)/C(=C\c4cn[nH]c4-c4ccccc4)S3)CC2)cc1` stands 0.793 µM; under `CC1CN(C(=O)c2ccc(COc3ccc(C(C)C)cc3)o2)CC(C)O1` (stereo unspecified), less than 0.0012 µM.

Turning to `O=C1C=C(c2cccs2)C[C@H](c2ccccc2)[C@H]1n1nnc([N+](=O)[O-])n1`, the AC35 was 0.208 µM.

Turning to `COc1ccc(C(=O)N/N=C/C23CC[C@@H](O)CC2(O)CC[C@@H]2[C@@H]3CCC3(C)C(C4=CC(=O)OC4)CCC23O)cc1` (stereo partly specified), the AC35 was 0.388 µM. As for `Cc1cc(C)n(-c2nnc3n2N=C(c2c[nH]c4ccccc24)CS3)n1`, the AC35 was 0.0285 µM. The result for `CC1CN(C(=O)c2ccc(COc3ccc4ccccc4c3)o2)CC(C)O1` (stereo unspecified) reads 0.306 µM; that for `C[C@@]12C(=O)Nc3cc(Cl)ccc3C(=O)N1[C@H]1c3cc(Cl)ccc3OC[C@@H]1[C@@H]2c1ccccc1`, 1.44 µM. Under `COC(=O)c1ccc(C(=O)NC2CC(C)(C)Cc3c2cnn3-c2ccc(F)cc2)nc1` (stereo unspecified) stands 3.95 µM; under `O=C1NC[C@H](Cc2ccccc2)N(C[C@H]2CCCN2C[C@H](Cc2ccccc2)N2C[C@H](Cc3ccc(O)cc3)N(CCc3ccccc3)C(=O)C2=O)C1=O`, 3.77 µM; under `C=CCn1c(SCc2c(C)noc2C)nc2sc3c(c2c1=O)CCC(C)C3` (stereo unspecified), 0.238 µM. Under `COc1ccc(Nc2nc(-c3sc(C)nc3C)cs2)c(OC)c1` stands 0.075 µM. Turning to `O=C(CNC(=O)c1ccc(Br)o1)Nc1cccc(-c2cnc3ccccc3n2)c1`, the AC35 is 3.53 µM. Under `C#CCCOC(=O)N1C2=NC(C(=O)OC)=C(C(=O)OC)[C@@H]3N(C)c4ccccc4[C@]23C[C@H]1C(=O)OC` stands 0.934 µM; under `COc1cc(C(=O)Nc2ccc3c(c2)nc(C)n3C)cc(OC)c1OC`, 1.13 µM; under `Cc1cnc(NC(=O)C2CC(=O)N(c3cccc(Cl)c3)C2)s1` (stereo unspecified), 1.6 µM. The result for `COc1ccc(CCCC(=O)NCc2ccccc2)cc1C` reads 2.78 µM.

Take `CC(CCc1ccco1)NC(=O)CCc1nnc2ccc(NCc3ccc(Cl)cc3)nn12` (stereo unspecified): the AC35 is 1.58 µM. The result for `C[C@@]12C(=O)Nc3ccc(Br)cc3C(=O)N1[C@H]1c3ccccc3OC[C@@H]1[C@@H]2c1ccccc1` reads 0.785 µM.

Take `COc1cc(C(=O)N/N=C/c2ccc3c(c2)c2ccccc2n3C)ccc1O`: the AC35 was 9.59 µM. On to `OC1CCCN(Cc2ccc3ccc4cccc5ccc2c3c45)C1` (stereo unspecified), for which the AC35 is 0.89 µM. Turning to `COc1cccc(N2CCN(C(=O)c3ccc(CS(=O)c4ccc(Cl)cc4)o3)CC2)c1` (stereo unspecified), the AC35 was 0.773 µM. Under `c1ccc(N=Nc2ccc3cccccc2-3)cc1` stands 0.355 µM. With `COc1cccc(C(NC(C)=O)c2nc(-c3ccccc3OC)cs2)c1` (stereo unspecified), the AC35 was 0.0933 µM.

Turning to `CC(=O)OC1CC[C@]2(C#N)[C@H]3CC[C@]4(C)[C@H](C5C=CC(=O)O5)CCC4(O)C3CCC2(O)C1` (stereo partly specified), the AC35 is 2.85 µM. The result for `CCOC(=O)c1cnc2c(ccc3ccccc32)c1NCCCN(C)C` reads 0.515 µM; that for `COc1ccc(OC)c(-c2cc(-c3cccnc3)nc(N)c2C#N)c1`, 0.227 µM.

With `COc1ccc(/C=N\NC(=O)c2sccc2C)cc1Cn1nc(C)cc1C`, the AC35 is 0.28 µM. Under `CCN(CC)S(=O)(=O)c1ccc(N2CCOCC2)c(NC(=O)c2[nH]c(C)c(C(C)=O)c2C)c1` stands 0.33 µM; under `CCOc1ccc2[nH]c3c(N4CCc5ccccc5C4)ncnc3c2c1`, 4.26 µM; under `Cn1cccc1/C=C1\SC(=Nc2cccc(O)c2)NC1=O`, 1.76 µM.
